Numbers after ± are expanded uncertainties.
Assay: xn = mol fraction of the nth substance listed
Settings: 98 kPa, Liquid; for speed of sound: Frequency=3 MHz, Single path-length method; for mass density: Vibrating tube method

Cn1ccnc1 [1-methylimidazole] + O
Settings	mass density, 288.15 K [kg/m3]	mass density, 298.15 K [kg/m3]	mass density, 308.15 K [kg/m3]	mass density, 318.15 K [kg/m3]	mass density, 328.15 K [kg/m3]	speed of sound, 288.15 K [m/s]	speed of sound, 298.15 K [m/s]	speed of sound, 308.15 K [m/s]	speed of sound, 318.15 K [m/s]	speed of sound, 328.15 K [m/s]
x1 = 0.0521	1011.8 ± 0.8	1007.6 ± 0.8	1002.76 ± 0.8	997.34 ± 0.8	991.41 ± 0.8	1581.3 ± 1.1	1587 ± 1.1	1588.8 ± 1.1	1586.8 ± 1	1581.4 ± 1
x1 = 0.1076	1022.54 ± 0.8	1016.8 ± 0.8	1010.63 ± 0.8	1004.04 ± 0.8	997.06 ± 0.8	1645.6 ± 1.1	1636.9 ± 1.1	1625.7 ± 1.1	1612.2 ± 1	1596.3 ± 1
x1 = 0.2035	1035.77 ± 0.8	1028.46 ± 0.8	1020.89 ± 0.8	1013.06 ± 0.8	1004.95 ± 0.8	1705.3 ± 1.1	1682.6 ± 1.1	1658.4 ± 1.1	1633.1 ± 1.1	1606.6 ± 1.1
x1 = 0.3041	1044.45 ± 0.8	1036.28 ± 0.8	1027.92 ± 0.8	1019.36 ± 0.8	1010.6 ± 0.8	1731.5 ± 1.1	1707.2 ± 1.1	1669.9 ± 1.1	1638.1 ± 1.1	1605.7 ± 1.1
x1 = 0.4017	1048.95 ± 0.81	1040.34 ± 0.81	1031.57 ± 0.81	1022.64 ± 0.8	1013.55 ± 0.8	1735.5 ± 1.1	1701.4 ± 1.1	1667.7 ± 1.1	1631.6 ± 1.1	1596.3 ± 1.1
x1 = 0.5053	1050.2 ± 0.81	1041.41 ± 0.81	1032.48 ± 0.81	1023.41 ± 0.81	1014.19 ± 0.81	1723.2 ± 1.2	1687.5 ± 1.2	1651.3 ± 1.2	1615 ± 1.2	1578.4 ± 1.2
x1 = 0.6052	1048.91 ± 0.81	1040.12 ± 0.81	1031.21 ± 0.81	1022.16 ± 0.81	1012.98 ± 0.81	1702.4 ± 1.2	1666.6 ± 1.2	1630.2 ± 1.2	1593.7 ± 1.2	1557 ± 1.2
x1 = 0.7018	1046.64 ± 0.82	1037.87 ± 0.81	1028.99 ± 0.81	1020.01 ± 0.81	1010.92 ± 0.81	1681.9 ± 1.3	1645.8 ± 1.3	1609.4 ± 1.3	1573 ± 1.3	1536.5 ± 1.3
x1 = 0.8044	1043.96 ± 0.82	1035.17 ± 0.82	1026.32 ± 0.82	1017.39 ± 0.82	1008.38 ± 0.82	1662.5 ± 1.3	1626 ± 1.3	1589.3 ± 1.3	1552.7 ± 1.3	1516.3 ± 1.3
x1 = 0.9031	1041.64 ± 0.83	1032.83 ± 0.83	1023.98 ± 0.82	1015.07 ± 0.82	1006.1 ± 0.82	1647.8 ± 1.4	1610.9 ± 1.4	1573.7 ± 1.4	1536.9 ± 1.4	1500.3 ± 1.4
x1 = 0.9555	1040.49 ± 0.83	1031.66 ± 0.83	1022.8 ± 0.83	1013.91 ± 0.83	1004.96 ± 0.82	1640.8 ± 1.4	1603.8 ± 1.4	1566.4 ± 1.4	1529.3 ± 1.4	1492.6 ± 1.4
x1 = 1	1039.36 ± 0.83	1030.52 ± 0.83	1021.66 ± 0.83	1012.76 ± 0.83	1003.83 ± 0.83	1634.1 ± 1.4	1596.5 ± 1.4	1559 ± 1.4	1521.8 ± 1.4	1485 ± 1.4

From the NIST ThermoML archive (doi:10.1016/j.jct.2018.12.019)
